Paper PMC11343403, “A novel TREX1 inhibitor, VB-85680, upregulates cellular interferon responses” (PLOS ONE, 2024)

Key:
[1] = target: T1, TREX1 (Three-prime Repair EXonuclease 1), mouse (Mus musculus, UniProt Q91XB0); experiment: fluorescence exonuclease assay (FAM-12mer-BHQ1) in HEK293T overexpression lysate, with D18N and empty-vector controls; assay type: biochemical
T1 construct: full-length mouse TREX1 (wild-type), overexpressed in HEK293T
T1 sequence (Q91XB0 1-314): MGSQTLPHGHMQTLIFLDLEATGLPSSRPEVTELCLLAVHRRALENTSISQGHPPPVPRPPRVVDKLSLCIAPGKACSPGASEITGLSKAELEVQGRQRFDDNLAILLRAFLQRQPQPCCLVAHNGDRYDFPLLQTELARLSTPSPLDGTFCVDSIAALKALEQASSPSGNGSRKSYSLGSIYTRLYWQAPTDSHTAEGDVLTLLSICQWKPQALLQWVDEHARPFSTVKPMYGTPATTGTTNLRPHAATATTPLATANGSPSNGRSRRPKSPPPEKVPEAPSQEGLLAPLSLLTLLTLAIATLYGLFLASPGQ

[2] = target: T2, TREX1 (Three-prime Repair EXonuclease 1), human (Homo sapiens, UniProt Q9NSU2); experiment: BioVision […]' to […]' exonuclease activity assay in THP1-Dual lysate, with TREX1 knockout lysate control; assay type: biochemical
T2 construct: endogenous human TREX1 in THP1-Dual cell lysate
T2 sequence (Q9NSU2 1-314): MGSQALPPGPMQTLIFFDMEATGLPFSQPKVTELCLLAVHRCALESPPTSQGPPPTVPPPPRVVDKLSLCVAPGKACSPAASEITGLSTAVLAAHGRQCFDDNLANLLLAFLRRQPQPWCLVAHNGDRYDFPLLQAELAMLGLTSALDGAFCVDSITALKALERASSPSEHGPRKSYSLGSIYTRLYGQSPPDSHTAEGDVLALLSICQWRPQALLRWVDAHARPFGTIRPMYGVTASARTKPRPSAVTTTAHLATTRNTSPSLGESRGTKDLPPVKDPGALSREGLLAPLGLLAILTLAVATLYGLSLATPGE

## VB-85680
[1]
  IC50: 3.1 nM
[2]
  IC50: 48.8 nM
